This passage reports Emax and EC50 results from patent US9868746B2, “Substituted 5-aminothieno[2,3-C]pyridazine-6-carboxamide analogs as positive allosteric modulators of the muscarinic acetylcholine receptor M4” (Vanderbilt University, priority 2012, dated 2018).

pEC50: −log10 of the molar value. Some results are limits rather than exact numbers.

The target in the assay is T1, mAChR M4 (Homo sapiens, UniProt P08173).
T1 construct: expressed in transfected cells; host or cells: CHO-K1 cells stably transfected with M4 cDNA and chimeric G-protein Gqi5
T1 sequence (P08173 1-479): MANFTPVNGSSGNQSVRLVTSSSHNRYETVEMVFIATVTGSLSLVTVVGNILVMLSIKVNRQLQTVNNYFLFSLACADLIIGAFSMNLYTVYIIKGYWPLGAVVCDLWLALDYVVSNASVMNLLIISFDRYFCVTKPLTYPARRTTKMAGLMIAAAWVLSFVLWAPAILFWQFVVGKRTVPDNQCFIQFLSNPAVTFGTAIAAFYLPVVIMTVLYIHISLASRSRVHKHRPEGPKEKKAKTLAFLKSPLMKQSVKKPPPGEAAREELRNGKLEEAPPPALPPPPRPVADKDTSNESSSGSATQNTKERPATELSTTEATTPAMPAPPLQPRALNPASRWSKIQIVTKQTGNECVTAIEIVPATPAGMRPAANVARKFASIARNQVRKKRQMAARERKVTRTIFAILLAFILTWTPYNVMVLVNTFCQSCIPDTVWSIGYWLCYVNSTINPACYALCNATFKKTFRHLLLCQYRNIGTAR
Briefly: mAChR M4 cell-based functional assay (calcium mobilization, potentiation of EC20 acetylcholine response). To be noted: for Emax at 30 µM: % ACh maximum at 30 μM; for pEC50: mAChR M4 cell-based functional assay, >10,000 estimated for low potency compounds without plateau, read-out: EC50.

Turning to `COc1ccccc1OC(=O)N1CC(NC(=O)c2sc3nnc(C)c(C)c3c2N)C1` [Example B376], the Emax at 30 µM came out at 59% and the pEC50 is 7.77.

Consider `Cc1nnc2sc(C(=O)N3CC(c4ccccc4)C3)c(N)c2c1C` [Example B116], for which the Emax at 30 µM is 75% and the pEC50 is 6.80.

With `Cc1nnc2sc(C(=O)NCCNC(=O)c3ccc(F)cc3)c(N)c2c1C` [Example B340], the maximal effect (Emax) at 30 µM was 38% and the negative logarithm of the EC50 (pEC50) is 6.43.

For `COc1cccc(C(=O)N2CC(NC(=O)c3sc4nnc(C)c(C)c4c3N)C2)c1` [Example B127], the Emax at 30 µM was 82% and the pEC50 was 7.07.

`Cc1nnc2sc(C(=O)N[C@H]3CCN(S(C)(=O)=O)C3)c(N)c2c1C` [Example B82]: the Emax at 30 µM worked out at 59% and the pEC50 is 6.34.

`CCCOC(=O)NC1CCN(C(=O)c2sc3nnc(C)c(C)c3c2N)C1` (stereo not drawn) [Example B210]: the Emax at 30 µM worked out at 58% and the pEC50 is under 5.00.

Consider `Cc1cc(-c2ccc(CNC(=O)c3sc4nnc(C)c(C)c4c3N)cc2)cnc1F` [Example B484], for which the Emax at 30 µM was 63% and the pEC50 is 6.96.

For `Cc1nnc2sc(C(=O)N3CC(O)(c4ccccc4)C3)c(N)c2c1C` [Example B179], the Emax at 30 µM was found to be 33% and the pEC50 is 6.04.

With `Cc1ccc(C(=O)NC2CCN(C(=O)c3sc4nnc(C)c(C)c4c3N)C2)cc1` (stereo not drawn) [Example B225], the maximal effect (Emax) at 30 µM worked out at 62% and the pEC50 was 5.85.

Take `Cc1nnc2sc(C(=O)NC3CN(C(=O)Nc4ccc(C(C)C)cc4)C3)c(N)c2c1C` [Example B349]: the Emax at 30 µM turned out to be 71% and the pEC50 was 7.59.

With `Cc1nnc2sc(C(=O)NCc3ccc([S+]([O-])C(F)F)cc3)c(N)c2c1C` (stereo not drawn) [Example B478], the Emax at 30 µM amounted to 71% and the pEC50 was 7.64.

In the case of `Cc1nnc2sc(C(=O)N3CC(F)(c4ccc(S(=O)(=O)CF)cc4)C3)c(N)c2c1C` [Example B393], the Emax at 30 µM is 44% and the negative-log EC50 (pEC50) was 6.40.

For `Cc1nnc2sc(C(=O)N3CC(S(=O)(=O)c4ccc(F)cc4F)C3)c(N)c2c1C` [Example B432], the Emax at 30 µM was determined as 40% and the pEC50 was 6.09.

With `Cc1nnc2sc(C(=O)NC3CCN(C(=O)CC4CCCCC4)C3)c(N)c2c1C` (stereo not drawn) [Example B241], the Emax at 30 µM came to 64% and the negative logarithm of the EC50 (pEC50) is 6.07.

In the case of `Cc1ccc(S(=O)(=O)N2CC(NC(=O)c3sc4nnc(C)c(C)c4c3N)C2)cc1F` [Example B145], the Emax at 30 µM is 82% and the pEC50 is 6.89.

For the molecule `COc1ccc(CNC(=O)c2sc3nnc(-c4ccccc4)c(-c4ccccc4)c3c2N)cc1` [Example B40], the Emax at 30 µM was 47% and the pEC50 was 5.57.

As to `COc1ccc(C2(CNC(=O)c3sc4nnc(C)c(C)c4c3N)CC2)cc1` [Example B75], the Emax at 30 µM came to 41% and the pEC50 was 6.44.

As to `COc1ccc(C2CC2NC(=O)c2sc3nnc(C)c(C)c3c2N)cc1` (stereo not drawn) [Example B30], the maximal response (Emax) at 30 µM stood at 76% and the pEC50 is 7.85.

In the case of `Cc1nnc2sc(C(=O)NC34CC(C3)C4)c(N)c2c1C` [Example B248], the Emax at 30 µM was 81% and the pEC50 was 6.20.

`Cc1nc(C)c(S(=O)(=O)N2CC(NC(=O)c3sc4nnc(C)c(C)c4c3N)C2)s1` [Example B103]: the Emax at 30 µM was 69% and the pEC50 is 7.03.

Consider `Cc1nnc2sc(C(=O)N3CCC(O)(c4ccccc4)C3)c(N)c2c1C` (stereo not drawn) [Example B279], for which the Emax at 30 µM was found to be 48% and the pEC50 was 5.37.

As for `Cc1nnc2sc(C(=O)NC3COC3)c(N)c2c1C` [Example B24], the maximal response (Emax) at 30 µM is 80% and the pEC50 was 6.28.

Consider `Cc1nnc2sc(C(=O)Nc3ccc4cn[nH]c4c3)c(N)c2c1C` [Example B67], for which the maximal effect (Emax) at 30 µM amounted to 51% and the pEC50 is 6.46.

As to `COC1(C2CCCCC2)CN(C(=O)c2sc3nnc(C)c(C)c3c2N)C1` [Example B304], the Emax at 30 µM came to 43% and the pEC50 was 5.96.

For the molecule `Cc1nnc2sc(C(=O)N3CC(F)(c4cccnc4)C3)c(N)c2c1C` [Example B308], the Emax at 30 µM worked out at 42% and the pEC50 was 6.07.

On to `Cc1nnc2sc(C(=O)NC3CN(c4ncc(Br)cn4)C3)c(N)c2c1C` [Example B429], for which the Emax at 30 µM came out at 67% and the pEC50 is 7.64.

With `Cc1nnc2sc(C(=O)N3CC(NCCC(C)C)C3)c(N)c2c1C` [Example B63], the Emax at 30 µM was 41% and the pEC50 is under 5.00.

Take `Cc1nnc2sc(C(=O)NCc3ccc(CN4CCCCC4)cc3)c(N)c2c1C` [Example B504]: the Emax at 30 µM was 68% and the pEC50 was 7.10.

Consider `Cc1nnc2sc(C(=O)NC3CN(C(=O)Oc4cc(F)cc(F)c4)C3)c(N)c2c1C` [Example B370], for which the Emax at 30 µM turned out to be 61% and the pEC50 was 8.00.

As to `COc1cccc(C2(F)CN(C(=O)c3sc4nnc(C)c(C)c4c3N)C2)c1` [Example B300], the maximal effect (Emax) at 30 µM stood at 52% and the pEC50 was 6.48.

Regarding `Cc1nnc2sc(C(=O)N3CC4CN(C(=O)C(C)(C)C)CC4C3)c(N)c2c1C` (stereo not drawn) [Example B333], the Emax at 30 µM amounted to 53% and the pEC50 was under 5.00.

Regarding `Cc1nnc2sc(C(=O)NCc3ccc(S(=O)(=O)C(C)(C)C)cc3)c(N)c2c1C` [Example B47], the Emax at 30 µM worked out at 76% and the pEC50 was 7.39.

Take `CS(=O)(=O)c1ccc(CNC(=O)c2sc3nnc4c(c3c2N)CCCC4)cc1` [Example B58]: the maximal effect (Emax) at 30 µM was determined as 64% and the pEC50 was 6.62.

As for `Cc1nnc2sc(C(=O)NCc3ccc(CS(C)(=O)=O)cc3)c(N)c2c1C` [Example B74], the Emax at 30 µM is 69% and the pEC50 was 6.77.

`Cc1nnc2sc(C(=O)NC3CN(C(=O)c4ccc(F)cc4F)C3)c(N)c2c1C` [Example B391]: the Emax at 30 µM was found to be 88% and the pEC50 is 6.52.

`Cc1nnc2sc(C(=O)NC3CCN(C(=O)OC(C)C)C3)c(N)c2c1C` (stereo not drawn) [Example B222]: the maximal effect (Emax) at 30 µM is 50% and the pEC50 was under 5.00.

Take `Cc1nnc2sc(C(=O)NCc3cccnc3)c(N)c2c1C` [Example B316]: the Emax at 30 µM amounted to 73% and the pEC50 was 6.51.

As to `Cc1nnc2sc(C(=O)N3CC(N=[N+]=[N-])(c4ccccc4)C3)c(N)c2c1C` [Example B311], the Emax at 30 µM came out at 43% and the pEC50 is 6.74.

Take `Nc1c(C(=O)NCc2ccc3c(c2)OC(F)(F)O3)sc2nnc3c(c12)CCCC3` [Example B53]: the Emax at 30 µM came out at 42% and the pEC50 was 6.77.

Take `Cc1nnc2sc(C(=O)NC3CN(C(=O)OCc4ccccc4)C3)c(N)c2c1C` [Example B124]: the Emax at 30 µM is 58% and the pEC50 was 7.66.

As for `Cc1nnc2sc(C(=O)N3CC(Cc4ccccc4)C3)c(N)c2c1C` [Example B275], the Emax at 30 µM came out at 65% and the pEC50 was 6.70.

As to `Cc1nnc2sc(C(=O)NC3CN(C(=O)N4CCCCC4)C3)c(N)c2c1C` [Example B125], the Emax at 30 µM is 58% and the pEC50 was 6.00.

In the case of `Cc1nnc2sc(C(=O)N3CCC(c4ccccc4)C3C)c(N)c2c1C` (stereo not drawn) [Example B163], the maximal effect (Emax) at 30 µM came to 54% and the pEC50 was 6.62.

For `Cc1nnc2sc(C(=O)N3CC(NCc4ccc(F)cc4)C3)c(N)c2c1C` [Example B59], the maximal response (Emax) at 30 µM is 56% and the pEC50 was 5.39.

Consider `Cc1nnc2sc(C(=O)N3CC4(C3)CN(C(=O)C3CCCC3)C4)c(N)c2c1C` [Example B402], for which the Emax at 30 µM was determined as 46% and the pEC50 was 5.48.

Regarding `Cc1nnc2sc(C(=O)NCCNS(=O)(=O)c3ccccc3)c(N)c2c1C` [Example B360], the Emax at 30 µM worked out at 52% and the pEC50 was 5.60.

In the case of `COCc1ccc(CNC(=O)c2sc3nnc(C)c(C)c3c2N)cc1` [Example B91], the Emax at 30 µM stood at 53% and the pEC50 was 7.01.

On to `Cc1nnc2sc(C(=O)NCc3ccc(C(F)F)nc3)c(N)c2c1C` [Example B420], for which the Emax at 30 µM came to 71% and the pEC50 is 6.57.

With `Cc1nnc2sc(C(=O)NCc3ccc(-c4cc(F)nc(F)c4)cc3)c(N)c2c1C` [Example B455], the Emax at 30 µM came out at 64% and the pEC50 is 7.57.

Regarding `CS(=O)(=O)c1ccc(CNC(=O)c2sc3nnc(Cl)cc3c2N)cc1` [Example B76], the Emax at 30 µM was 55% and the pEC50 is 6.31.

On to `Cc1nnc2sc(C(=O)N3CCc4nn(C)cc4C3)c(N)c2c1C` [Example B380], for which the Emax at 30 µM came to 34% and the pEC50 was under 5.00.

In the case of `Cc1nnc2sc(C(=O)NCc3ccc(F)c(S(C)(=O)=O)c3)c(N)c2c1C` [Example B78], the maximal effect (Emax) at 30 µM was found to be 63% and the pEC50 was 6.64.

For `Cc1nnc2sc(C(=O)NCc3cccc(F)c3)c(N)c2c1C` [Example B7], the Emax at 30 µM is 97% and the negative-log EC50 (pEC50) was 6.85.

With `Cc1nnc2sc(C(=O)NCc3ccc(C(C)(O)C(F)(F)F)cc3)c(N)c2c1C` (stereo not drawn) [Example B106], the maximum response (Emax) at 30 µM is 71% and the pEC50 was 7.70.

What is called Emax is the greatest response seen or fitted, relative to the assay's reference. Usually pEC50 stands for the negative decadic logarithm of the EC50, by convention in mol/L.
